Results as given in US9018194B2 (Nibon University, priority 2011, dated 2015).

Key:
[1] = target: T1, human VDR (Homo sapiens, UniProt P11473); experiment: VDR transcription induction activity, luciferase reporter assay (mouse osteopontin VDRE) in HEK293 cells transfected with human VDR; assay type: cell-based; design: expressed in transfected cells; host or cells: HEK293 cells; settings: for efficacy of VDR transcription induction, % of that of the natural hormone / concentration at which the highest transcription activity was shown: HEK293 cells; for efficacy of VDR transcription induction, % of that of the natural hormone: Sppx3-tk-LUC reporter, relative to 1,25(OH)2D3; for concentration at which the highest transcription activity was shown: 10^-8 M was the lowest concentration used
T1 sequence (P11473 1-427): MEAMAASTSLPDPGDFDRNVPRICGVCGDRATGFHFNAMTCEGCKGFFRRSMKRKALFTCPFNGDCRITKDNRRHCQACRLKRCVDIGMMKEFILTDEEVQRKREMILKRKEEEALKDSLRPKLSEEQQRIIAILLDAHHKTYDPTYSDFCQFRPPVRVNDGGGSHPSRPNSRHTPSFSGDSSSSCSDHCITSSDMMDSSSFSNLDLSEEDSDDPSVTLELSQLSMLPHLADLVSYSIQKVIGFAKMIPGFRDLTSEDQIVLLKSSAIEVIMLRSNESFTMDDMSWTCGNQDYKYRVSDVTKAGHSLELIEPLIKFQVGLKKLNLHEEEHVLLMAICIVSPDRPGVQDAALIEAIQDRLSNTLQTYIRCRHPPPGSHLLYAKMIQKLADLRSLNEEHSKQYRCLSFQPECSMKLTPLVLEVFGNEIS
Experimental: Briefly, HEK cells were transfected with human VDR expression vector (pCMX-VDR) and expression vectors for VDR responsive luciferase (Sppx3-tk-LUC) and β-galactosidase by the calcium phosphate method. Eight hours later, compounds were added to the cells. After culturing for 16-24 hr, cells were harvested, and the activities of luciferase and β-galactosidase were measured. Luciferase activity values were corrected with β-galactosidase activity values.

[2] = target: T1, human VDR; settings: for VDR binding ability, rank in words: among ADTK1 through ADTK4

Compound	efficacy of VDR transcription induction, % of that of the natural hormone [1]	concentration at which the highest transcription activity was shown [1]	VDR binding ability, rank in words [2]	type of activity at VDR (in words) ([1]; HEK293 luciferase assay, alone and in co-presence of 1,25(OH)2D3)	affinity for human VDR relative to the natural hormone 1,25(OH)2D3 ([2]; competition with [3H]-1,25(OH)2D3, 1,25(OH)2D3 = 100%)
C=C1[C@H](O)CC(=C/C=C2\CCC[C@]3(C)[C@@H]([C@H](C)CC#C[C@@H](O)CC45CC6CC(CC(C6)C4)C5)CC[C@@H]23)C[C@H]1O [ADTK4, (25S)-26-(1-Adamantyl)-1α,25-dihydroxy-2-methylene-23,23,24,24-tetradehydro-19,27-dinorvitamin D3]	54%	around 10^−7 M	–	–	–
C=C1[C@H](O)CC(=C/C=C2\CCC[C@]3(C)[C@@H]([C@H](C)CC#C[C@H](O)CC45CC6CC(CC(C6)C4)C5)CC[C@@H]23)C[C@H]1O [ADTK3, (25R)-26-(1-Adamantyl)-1α,25-dihydroxy-2-methylene-23,23,24,24-tetradehydro-19,27-dinorvitamin D3]	72%	around 10^−7 M	lowest VDR binding ability	–	–
(25R)-25-(1-Adamantyl)-1α,25-dihydroxy-2-methylene-23,23,24,24-tetradehydro-19,26,27-trinorvitamin D3 [ADTK2]	66%	10^−8 M	highest VDR binding activity	partial agonist	67%
(25S)-25-(1-Adamantyl)-1α,25-dihydroxy-2-methylene-23,23,24,24-tetradehydro-19,26,27-trinorvitamin D3 [ADTK1]	40%	around 10^−7 M	–	–	–
